According to patent US8232273B2, “Heterocyclic compounds and methods of use” (Genentech, Inc., priority 2008, dated 2012):
Like-named read-outs stand apart in the source and are kept apart here.

How the values were obtained:
[1] = biological target: T1, Bcl-xL (GST-Bcl-xL) (Homo sapiens, UniProt Q07817); experiment: TR-FRET binding assay, competition with F-Bak for the Bcl-xL binding site
[2] = biological target: T1, Bcl-xL (GST-Bcl-xL); experiment: AlphaScreen Bcl-xL binding assay, competition with biotinylated Bim peptide; design: made in house; details: values listed in the order of Table 1; read-out: Alphascreen results (IC50) against the Bcl-xL protein
Source text: The measurement of competition of compounds of the invention with Bim26-mer for a Bcl-2 family protein binding site using an Alpha Screen Bcl-xL binding assay:
The BH3 proteins AlphaScreen™ assay was used to identify active small molecules Bcl-2 family protein screen, e.g., Bcl-xL, hmMcl-1 screen.
The beads come in close proximity when the protein and the peptides interact. Donor beads contain a photosensitiser that converts oxygen to an excited form of O2 at an excitation of 680 nm. Energy is transformed from the singlet oxygen and reacts with chemiluminescers on the acceptor bead, resulting in light emission at 520-620 nm. […] With this information, the IC50 of each compound was calculated
GST-Bcl-xL, GST-hmMcl-1 and biotinylated GST proteins were prepared in-house and were stored as stock solutions at −80° C. The biotinylated-Bak, and biotinylated-Bim peptides were purchased from Auspep and were stored as 500 μM stock solutions in 100% DMSO at −80° C. […] DMSO was purchased from AnalaR.
Compounds of the invention were prepared as 10 mM stocks with 100% DMSO on the day prior to performing the assay. […] To achieve a final compound concentration of 1 μM, in a separate matrical plate, 28 μL of 100% DMSO and 2 μL of 10 mM compound was added to a well, mixed well, 2 μL of this solution was taken and added to 38 μL of 100% DMSO. 20 μL of this solution was added to the test matrical plate. Several control compounds were included in the test plates. For the control wells 15 μL 100% DMSO only was added to the appropriate wells of each plate. The compound plates were then serially diluted 2 fold using the MiniTrak. Once titrations were complete, the compound plate was immediately covered with a foil seal to prevent evaporation.
The assay and bead buffers were prepared fresh. Each titrated compound plate was assayed in duplicate. The following volumes were sufficient to run 12 Proxiplates (4 assay plates run in duplicate in each of Bclxl, hmMcl and counter assays)
Protein and Peptide Preparation; and Assay Performance • 1. The assay and bead buffers were used to prepare the acceptor and donor solutions. ALPHASCREEN™ beads are light sensitive and therefore prepared in a darkened room. 2.5 μL of beads were added per 1 mL of buffer. • 2. The volume of protein or peptide to add was calculated using the following formula:
V2=Volume of stock protein/Peptide to add to Acceptor/Donor solution • 3. The assay components were prepared as separate Acceptor and Donor Solutions. The Acceptor Solution contained Acceptor beads and target protein, while the Donor Solution contained Donor beads and biotinylated peptide.
• 4. After the solutions were prepared, they were left to incubate for 30 minutes at room temperature to allow the beads to bind to the protein and the peptide. • 5. 50 μL of Bcl-xL solution, 50 μL of hmMcl-1 solution and 50 μL of biotinylated-GST were added into separate deep wells on an assay plate. A control 50 μL Assay/Bead buffer was added separate well plates (no protein). • 6. 50 μL of Bim solution and 50 μL of Bak solution were added into separate deep well plates. • 7. Transfer 0.3 μL it of sample from the compound plate into each assay plate. • 8. Incubated for 30 mins at RT, then add 5 μL of the Donor solution. After addition of the Donor solution, tapped plates gently and sealed individually with adhesive film. • 9.
The percent inhibition was calculated using the following equation:
[formula] • x=RFU obtained after compound treatment • μ^−=RFU obtained for the negative controls (no protein controls) • μ^+=RFU obtained for the positive controls (DMSO vehicle controls)

[3] = values listed in the order of Table 1, read-out: TR-FRET assay results (Ki), Bcl-xL

T1 sequence (Q07817 whole entry, species assumed): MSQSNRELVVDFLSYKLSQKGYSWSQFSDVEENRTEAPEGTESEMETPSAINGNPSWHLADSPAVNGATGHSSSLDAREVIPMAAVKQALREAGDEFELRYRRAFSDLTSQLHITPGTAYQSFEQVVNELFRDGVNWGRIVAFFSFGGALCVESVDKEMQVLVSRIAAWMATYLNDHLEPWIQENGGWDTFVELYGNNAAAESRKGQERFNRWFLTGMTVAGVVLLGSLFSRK

Compound	Ki [1, 3] [nM]	IC50 [2] [nM]	Ki ([1]; with 1% human serum (HS)) [nM]
Nc1ccc(OCCCc2sc(N3CCc4cccc(C(=O)Nc5nc6ccccc6s5)c4C3)nc2C(=O)O)cc1 [Example 6, 5-(3-(4-aminophenoxy)propyl)-2-(8-(benzo[d]thiazol-2-ylcarbamoyl)-3,4-dihydroisoquinolin-2(1H)-yl)thiazole-4-carboxylic acid]	0.2	2	
O=C(Nc1nc2ccccc2s1)c1cccc2c1CN(c1nc(C(=O)O)c(CCCOc3ccc(OCCN4CCCC4)cc3)s1)CC2 [Example 114, 2-(8-(benzo[d]thiazol-2-ylcarbamoyl)-3,4-dihydroisoquinolin-2(1H)-yl)-5-(3-(4-(2-(pyrrolidin-1-yl)ethoxy)phenoxy)propyl)thiazole-4-carboxylic acid]	0.04	0.14	
O=C(Nc1nc2ccccc2s1)c1cccc2c1CN(c1nc(C(=O)O)c(CN3CCN(c4ccccc4)CC3)s1)CC2 [Example 62, 2-(8-(benzo[d]thiazol-2-ylcarbamoyl)-3,4-dihydroisoquinolin-2(1H)-yl)-5-((4-phenylpiperazin-1-yl)methyl)thiazole-4-carboxylic acid]	130	1600	
O=C(O)c1csc(N2CCc3cccc(C(=O)Nc4nc5ccccc5s4)c3C2)n1 [Example 1, 2-(8-(Benzo[d]thiazol-2-ylcarbamoyl)-3,4-dihydroisoquinolin-2(1H)-yl)thiazole-4-carboxylic acid]	77	100	
CN(C)CCc1ccc(OCCCc2ccc(N3CCc4cccc(C(=O)Nc5nc6ccccc6s5)c4C3)nc2C(=O)O)cc1 [Example 102, 6-(8-(benzo[d]thiazol-2-ylcarbamoyl)-3,4-dihydroisoquinolin-2(1H)-yl)-3-(3-(4-(2-(dimethylamino)ethyl)phenoxy)propyl)picolinic acid]	2	20	
O=C(Nc1nc2ccccc2s1)c1cccc2c1CN(c1nc(C(=O)O)c(CCCn3ccc4cccnc43)s1)CC2 [Example 17, 5-(3-(1H-pyrrolo[2,3-b]pyridin-1-yl)propyl)-2-(8-(benzo[d]thiazol-2-ylcarbamoyl)-3,4-dihydroisoquinolin-2(1H)-yl)thiazole-4-carboxylic acid]	4	20	
O=C(Nc1nc2ccccc2s1)c1cccc2c1CN(c1nc(C(=O)O)c(CCOc3ccc(-n4ncc5cncnc54)cc3)s1)CC2 [Example 49, 5-(2-(4-(1H-pyrazolo[3,4-d]pyrimidin-1-yl)phenoxy)ethyl)-2-(8-(benzo[d]thiazol-2-ylcarbamoyl)-3,4-dihydroisoquinolin-2(1H)-yl)thiazole-4-carboxylic acid]	12	80	
O=C(Nc1nc2ccccc2s1)c1cccc2c1CN(c1nc(C(=O)O)c(CCCOc3ccc4c5c3CCCN5CCC4)s1)CC2 [Example 27, 2-(8-(benzo[d]thiazol-2-ylcarbamoyl)-3,4-dihydroisoquinolin-2(1H)-yl)-5-(3-(1,2,3,5,6,7-hexahydropyrido[3,2,1-ij]quinolin-8-yloxy)propyl)thiazole-4-carboxylic acid]	1	7	
O=C(Nc1nc2ccccc2s1)c1cccc2c1CN(c1nc(C(=O)O)c(-c3ccc(CO)cc3)s1)CC2 [Example 34, 2-(8-(benzo[d]thiazol-2-ylcarbamoyl)-3,4-dihydroisoquinolin-2(1H)-yl)-5-(4-(hydroxymethyl)phenyl)thiazole-4-carboxylic acid]	4	5	
N#CC1(c2ccc(OCCCc3sc(N4CCc5cccc(C(=O)Nc6nc7ccccc7s6)c5C4)nc3C(=O)O)cc2)CCC1 [Example 26, 2-(8-(benzo[d]thiazol-2-ylcarbamoyl)-3,4-dihydroisoquinolin-2(1H)-yl)-5-(3-(4-(1-cyanocyclobutyl)phenoxy)propyl)thiazole-4-carboxylic acid]	3	5	
O=C(Nc1nc2ccccc2s1)c1cccc2c1CN(c1ccc(CCCOc3ccccc3)c(C(=O)O)n1)CC2 [Compound 121, 6-(8-(benzo[d]thiazol-2-ylcarbamoyl)-3,4-dihydroisoquinolin-2(1H)-yl)-3-(3-phenoxypropyl)picolinic acid]	10.6	136	
N#C/C=C/c1cccc(OCCCc2sc(N3CCc4cccc(C(=O)Nc5nc6ccccc6s5)c4C3)nc2C(=O)O)c1 [Example 30, (E)-2-(8-(benzo[d]thiazol-2-ylcarbamoyl)-3,4-dihydroisoquinolin-2(1H)-yl)-5-(3-(3-(2-cyanovinyl)phenoxy)propyl)thiazole-4-carboxylic acid]	0.4	0.3	
Nc1cccc(OCCCc2sc(N3CCc4cccc(C(=O)Nc5nc6ccccc6s5)c4C3)nc2C(=O)O)c1 [Example 9, 5-(3-(3-aminophenoxy)propyl)-2-(8-(benzo[d]thiazol-2-ylcarbamoyl)-3,4-dihydroisoquinolin-2(1H)-yl)thiazole-4-carboxylic acid]	0.07	0.8	
O=C(Nc1nc2ccccc2s1)c1cccc2c1CN(c1nc(C(=O)O)c(CN3CCC3c3ccccc3)s1)CC2 (centres unmarked) [Example 71, 2-[8-(Benzothiazol-2-ylcarbamoyl)-3,4-dihydro-1H-isoquinolin-2-yl]-5-(2-phenyl-azetidin-1-ylmethyl)-thiazole-4-carboxylic acid]	174	570	
N#Cc1c(-c2ccc(OCc3ccc(-c4sc(N5CCc6cccc(C(=O)Nc7nc8ccccc8s7)c6C5)nc4C(=O)O)cc3)cc2)n[nH]c1N [Example 35, 5-(4-((4-(5-amino-4-cyano-1H-pyrazol-3-yl)phenoxy)methyl)phenyl)-2-(8-(benzo[d]thiazol-2-ylcarbamoyl)-3,4-dihydroisoquinolin-2(1H)-yl)thiazole-4-carboxylic acid]	4	10	
O=C(Nc1nc2ccccc2s1)c1cccc2c1CN(c1nc(C(=O)O)c(CCCO)s1)CC2 [Example 38, 2-(8-(Benzo[d]thiazol-2-ylcarbamoyl)-3,4-dihydroisoquinolin-2(1H)-yl)-5-(3-hydroxypropyl)thiazole-4-carboxylic acid]	5	5	
CN(C)c1cccc(OCCCc2sc(N3CCc4cccc(C(=O)Nc5nc6ccccc6s5)c4C3)nc2C(=O)O)c1 [Example 11, 2-(8-(benzo[d]thiazol-2-ylcarbamoyl)-3,4-dihydroisoquinolin-2(1H)-yl)-5-(3-(3-(dimethylamino)phenoxy)propyl)thiazole-4-carboxylic acid]	0.1	2	
CN(C)CCCc1ccc(OCCCc2sc(N3CCc4cccc(C(=O)Nc5nc6ccccc6s5)c4C3)nc2C(=O)O)c(F)c1 [Example 103, 2-(8-(benzo[d]thiazol-2-ylcarbamoyl)-3,4-dihydroisoquinolin-2(1H)-yl)-5-(3-(4-(3-(dimethylamino)propyl)-2-fluorophenoxy)propyl)thiazole-4-carboxylic acid]		0.4	0.006
CN(C)CCOc1ccc(OCCCc2ccc(N3CCc4cccc(C(=O)Nc5nc6ccccc6s5)c4C3)nc2C(=O)O)cc1 [Compound 132, 6-(8-(benzo[d]thiazol-2-ylcarbamoyl)-3,4-dihydroisoquinolin-2(1H)-yl)-3-(3-(4-(2-(dimethylamino)ethoxy)phenoxy)propyl)picolinic acid]	0.18	0.9	
